The assay has as its system Lepeophtheirus Salmonis at Copeodid Stage (sea lice copepodids). Put plainly: Activity in vitro against Lepeophtheirus salmonis at copepodid stage. The note with it: copepodids 1 hour contact in sea water, then 48 h untreated sea water; no movement over 80 seconds; serial dilution (MED). How it is done:
3—Activity In Vitro Against Lepeophtheirus Salmonis at Copeodid Stage
Sea lice copepodids were used to seed a 96-well plate containing the test substances to be evaluated for antiparasitic activity. Each compound was tested by serial dilution in order to determine its minimal effective dose (MED). Copepodids were left in contact with the test compound diluted in sea water for 1 hour. They were then incubated in untreated sea water for 48 h. Efficacy against sea lice was then confirmed if no copepodid moved over a period of 80 seconds.
Turning to `O=C(/C=C/c1ccc(C(=O)NCC2CC2)c2ccccc12)NC(c1cccc(C(F)(F)F)c1)C(F)(F)F` (stereo not drawn) [Example 1.1, N-(cyclopropylmethyl)-4-[(1E)-2-({2,2,2-trifluoro-1-[3-(trifluoromethyl)phenyl]ethyl}carbamoyl)eth-1-en-1-yl]naphthalene-1-carboxamide], the “efficacy (EC80)” value is listed as 50 ppb.
Consider `O=C(/C=C/c1ccc(C(=O)NCc2ccco2)c2ccccc12)NC(c1cccc(C(F)(F)F)c1)C(F)(F)F` (stereo not drawn) [Example 1.3], for which the “efficacy (EC80)” value was found to be 50 ppb.
Consider `O=C(/C=C/c1ccc(C(=O)NC2CC2)c2ccccc12)NC(c1cccc(C(F)(F)F)c1)C(F)(F)F` (stereo not drawn) [Example 1.5], for which the “efficacy (EC80)” value amounted to 5 ppb.
As for `O=C(/C=C/c1ccc(C(=O)NC2CSC2)c2ccccc12)NC(c1cccc(C(F)(F)F)c1)C(F)(F)F` (stereo not drawn) [Example 1.10], the figure is 50 ppb; as for `CCNC(=O)c1ccc(/C=C/C(=O)NC(c2cccc(C(F)(F)F)c2)C(F)(F)F)c2ccccc12` (stereo not drawn) [Example 1.13], 50 ppb.
The result for `N#CC1(NC(=O)c2ccc(/C=C/C(=O)NC(c3cccc(C(F)(F)F)c3)C(F)(F)F)c3ccccc23)CC1` (stereo not drawn) [Example 1.26] reads 0.5 ppb.
The result for `CC(C)NC(=O)c1ccc(/C=C/C(=O)NC(c2cccc(C(F)(F)F)c2)C(F)(F)F)c2ccccc12` (stereo not drawn) [Example 1.27] reads 50 ppb; that for `CCN1OCC(NC(=O)c2ccc(/C=C/C(=O)NC(c3cccc(C(F)(F)F)c3)C(F)(F)F)c3ccccc23)C1=O` (stereo not drawn) [Example 1.34], 50 ppb.
For the molecule `O=C(/C=C/c1ccc(C(=O)NC2CC(F)(F)C2)c2ccccc12)NC(c1cccc(C(F)(F)F)c1)C(F)(F)F` (stereo not drawn) [Example 1.35], the “efficacy (EC80)” value was 50 ppb.
As for `O=C(/C=C/c1ccc(C(=O)NC2CC(F)C2)c2ccccc12)NC(c1cccc(C(F)(F)F)c1)C(F)(F)F` (stereo not drawn) [Example 1.36], the figure is 50 ppb; as for `O=C(C=Cc1ccc(C(=O)NC2CC2F)c2ccccc12)NC(c1cccc(C(F)(F)F)c1)C(F)(F)F` (stereo not drawn) [Example 1.40], 50 ppb.
The result for `CC1(NC(=O)c2ccc(/C=C/C(=O)NC(c3cccc(C(F)(F)F)c3)C(F)(F)F)c3ccccc23)CCC1` (stereo not drawn) [Example 1.41] reads 5 ppb; that for `O=C(/C=C/c1ccc(C(=O)NCC2CSC2)c2ccccc12)NC(c1cccc(C(F)(F)F)c1)C(F)(F)F` (stereo not drawn) [Example 1.43], 5 ppb.
As for `N#CC1(NC(=O)c2ccc(/C=C/C(=O)NC(c3cccc(C(F)(F)F)c3)C(F)(F)F)c3ccccc23)CCC1` (stereo not drawn) [Example 1.44], the “efficacy (EC80)” value worked out at 50 ppb.
Take `O=C(/C=C/c1ccc(C(=O)NC2CON(CC(F)(F)F)C2=O)c2ccccc12)NC(c1cccc(C(F)(F)F)c1)C(F)(F)F` (stereo not drawn) [Example 1.46]: the “efficacy (EC80)” value was 50 ppb.
The result for `O=C(/C=C/c1ccc(C(=O)NC2CC2)c2ccccc12)NC(c1cccc(Br)c1)C(F)(F)F` (stereo not drawn) [Example 1.56] reads 50 ppb.
The result for `Cc1cccc(C(NC(=O)/C=C/c2ccc(C(=O)NC3CC3)c3ccccc23)C(F)(F)F)c1` (stereo not drawn) [Example 1.58] reads 50 ppb; that for `O=C(/C=C/c1ccc(C(=O)NC2CC2)c2ccccc12)NC(c1cccc(OC(F)(F)F)c1)C(F)(F)F` (stereo not drawn) [Example 1.61], 0.5 ppb; that for `O=C(/C=C/c1ccc(C(=O)NC2CC2)c2ccccc12)NC(c1cc(Cl)cc(Cl)c1)C(F)(F)F` (stereo not drawn) [Example 1.62], 50 ppb.
The result for `O=C(/C=C/c1ccc(C(=O)NC2CC2)c2ccccc12)NC(c1ccc(Cl)c(Cl)c1)C(F)(F)F` (stereo not drawn) [Example 1.63] reads 50 ppb.
Take `O=C(/C=C/c1ccc(C(=O)NC2CC2)c2ccccc12)NC(c1cc(Cl)c(Cl)c(Cl)c1)C(F)(F)F` (stereo not drawn) [Example 1.64]: the “efficacy (EC80)” value was 5 ppb.
The result for `O=C(/C=C/c1ccc(C(=O)NC2CC2)c2ccccc12)NC(c1cccc(F)c1)C(F)(F)F` (stereo not drawn) [Example 1.65] reads 5 ppb; that for `O=C(/C=C/c1ccc(C(=O)NC2CC2)c2ccccc12)NC(c1ccc(Cl)c(C(F)(F)F)c1)C(F)(F)F` (stereo not drawn) [Example 1.66], 50 ppb; that for `O=C(/C=C/c1ccc(C(=O)NC2CC2)c2ccccc12)NC(c1cccc2ccccc12)C(F)(F)F` (stereo not drawn) [Example 1.82], 50 ppb.
The result for `Cc1cc(/C=C/C(=O)NC(c2cccc(C(F)(F)F)c2)C(F)(F)F)sc1C(=O)NC1CC1` (stereo not drawn) [Example 2.4] reads 50 ppb; that for `O=C(/C=C/c1ccc(C(=O)NC2CC2)c2cccnc12)NC(c1cccc(C(F)(F)F)c1)C(F)(F)F` (stereo not drawn) [Example 3.2], 50 ppb; that for `O=C(/C=C/c1ccc(C(=O)NC2CC2)c2ccccc12)NC(c1cccc(C(F)(F)F)c1)C(F)(F)F` (stereo not drawn) [Example 4.1], 50 ppb.

Source of the values: patent publication US9491941B2, “(Hetero) arylacrylamides for the control of ectoparasites” (Novartis Tiergesundheit AG, priority 2012, dated 2016).
